Results as given in publication PMC3454376, “Salidroside Improves Behavioral and Histological Outcomes and Reduces Apoptosis via PI3K/Akt Signaling after Experimental Traumatic Brain Injury” (PLoS ONE, 2012).

Columns and labels:
[1] = system: mice subjected to controlled cortical impact injury; assay: Residual cerebral tissue ratio, cresyl violet staining; assay type: in vivo; conditions: day 28; for preservation of brain tissue (ipsilateral/contralateral hemisphere volume): vehicle 76.4±3.3%, P<0.05
Description: All animal procedures were approved by the Animal Research Committee at Cheng Hsin General Hospital (Animal permit number CHIACUC 101–08), and all procedures complied with the Guide for the Care and Use of Laboratory Animals published by the US National Institutes of Health (NIH Publication No. 85–23, revised 1996). Animals were housed under a 12-h light/dark cycle and at constant temperature (21–25°C) and humidity (45–50%). They were allowed free access to pellet chow and water. TBI in mice was induced by a CCI injury model as previously described. Briefly, 8-week-old male C57BL/6 mice (weighing 22–25 g) were anesthetized through the use of intraperitoneal injection of sodium pentobarbital (65 mg/kg; Rhone Merieux, Harlow, UK) and placed in a stereotaxic frame. A 5 mm craniotomy was performed over the right parietal cortex, centered on the coronal suture and 0.1 mm lateral to the sagittal suture, and injury to dura was avoided. Injury was induced using a pneumatic piston with a rounded metal tip (2.5 mm diameter) that was angled 22.5° to the vertical so that the tip was perpendicular with the brain surface at the center of the craniotomy. The impact, with a velocity of […] and a deformation depth of 2 mm below the dura, was applied. The bone flap was immediately replaced and sealed, and the scalp was sutured. Body temperature was monitored throughout the surgery by a rectal probe; temperature was maintained at 37.0±0.5°C using a heated pad. Mice were placed in a heated cage to maintain body temperature, while recovering from anesthesia. Sham-operated mice underwent the same procedure as injured mice, but without CCI.
Mice were anesthetized and positioned in a stereotaxic frame. LY294002 (200 nM in 0.5 µL of saline) or equal amount of physiological saline was intracerebroventricularly (icv) injected at 30 min before CCI as previously described. A 1 mm cranial burr hole was drilled into the skull. A 30-gauge needle on a Hamilton syringe was implanted into the lateral ventricle using stereotactic coordinates: 1.5 mm posterior to bregma and 1.0 mm right lateral to the midline, 2 mm in depth. LY294002 or saline was infused into the brain at a rate of 0.05 µL/min over 10 min with an infusion pump (KDS 310, KD Scientific Inc., Holliston, MA, USA), and the needle was left in place for an additional 20 min to prevent reflux. After the needle was removed, CCI procedure was conducted immediately. Sham-operated mice were infused icv with saline, but were not subjected to CCI.
Three sets of experiments were performed. […] To determine the optimal dose of salidroside, a pilot study was performed using 2 different doses (20 and 50 mg/kg) administered 10 min after injury, and neurological deficits and tissue damage were evaluated as the main outcomes. […]

cleaved caspase-3 = assay: Western blot, injured cortex; assay type: in vivo, mice; conditions: for decrease of cleaved caspase-3 level versus vehicle: 20 mg/kg ip 10 min after CCI, P<0.05
Description: Three sets of experiments were performed. The first set was to investigate the protective effects of salidroside. All animals were randomized into 1 of 3 groups (sham injury, CCI + vehicle, CCI + SALD 20). Surgery/injury, behavioral testing, and tissue analyses were performed by different individuals. Behavioral testing and tissue analyses were performed by individuals blinded to the treatment group. Salidroside (Cayman Chemical, Ann Arbor, MI, USA) dissolved in normal saline (0.25 mL) or a corresponding volume of vehicle (saline) was administered intraperitoneally 10 min following injury. Testing after injury was completed as follows: 1) behavioral testing at days 1, 4, 7, 14, 21, and 28 (n = 8–10 mice/group); 2) cresyl violet staining at day 28 (n = 9 mice/group); 3) histology, determination of brain water content, and western blot analysis at day 1 or 3 (n = 5–6 mice/group). To determine the optimal dose of salidroside, a pilot study was performed using 2 different doses (20 and 50 mg/kg) administered 10 min after injury, and neurological deficits and tissue damage were evaluated as the main outcomes. […] The second set of experiment was to assess the effect of the inhibition of PI3K/Akt with the specific PI3K inhibitor, LY294002 (Cell Signaling Technology, Danvers, MA, USA), on salidroside effects. Animals were randomized into 4 groups. Mice received either: 1) icv pretreatment of LY294002 followed by SALD 20 after CCI (S20Y group); or 2) icv pretreatment of saline (vehicle control) followed by SALD 20 after CCI (S20V group). 3) Mice were infused icv with saline and were subjected to sham injury. 4) Mice were infused icv with LY294002 and were subjected to sham injury. […] Protein concentration was determined by Bradford reagent spectrophotometrically at A595. […] The relative intensity of protein signals was normalized to the corresponding β-actin intensity and was quantified by densitometric analysis with the use of Image J software.

OC[C@H]1O[C@@H](OCCc2ccc(O)cc2)[C@H](O)[C@@H](O)[C@@H]1O [SALD, salidroside]
preservation of brain tissue (ipsilateral/contralateral hemisphere volume) ([1]; 20 mg/kg ip 10 min after CCI): 81.9±2.6% | preservation of brain tissue (ipsilateral/contralateral hemisphere volume) ([1]; 50 mg/kg ip 10 min after CCI): 80.7±2.8% | residual cerebral tissue ratio ([1]; icv saline 30 min before CCI, then SALD 20 mg/kg ip (S20S group)): 80.5±5.8% | decrease of cleaved caspase-3 level versus vehicle (cleaved caspase-3; day 1): 49.6% | decrease of cleaved caspase-3 level versus vehicle (cleaved caspase-3; day 3): 34.9% | reduction of cleaved caspase-3 level (cleaved caspase-3; 20 mg/kg ip 3 h after injury, day 1): 34.1%
